Experimental data taken from US20240067693A1, “POLYPEPTIDES AND USES THEREOF” (MEDIMMUNE LIMITED, priority 2020, published 2024).
Read-outs that look alike come from different tables or passages of the source. Numbered stars: 1 amine (or outer) side, 2 acyl side, 3 side chain; on linkers, the order of the positions; unused ones are H or OH. Bridge positions count the residues as written; N and C are the ends. Square brackets hold non-standard residues; d marks the D form. Side chains are listed from the residue outwards. Peptide text beside a SMILES is read from it. * marks the point of attachment. C18 diacid = O=C(O)CCCCCCCCCCCCCCCCC(=O)*; γGlu = O=C(O)[C@H](CCC(=O)[*:2])N[*:1]; Aib = CC(C)(N)C(=O)O

What was measured:
[1] = target: T1, human calcitonin receptor (hCTR) (Homo sapiens, UniProt P30988); test: cAMP production in 1321N1 cells with stable recombinant expression of human calcitonin receptor (hCTR); type: cell-based
T1 construct: expressed in transfected cells
T1 sequence (P30988 25-474): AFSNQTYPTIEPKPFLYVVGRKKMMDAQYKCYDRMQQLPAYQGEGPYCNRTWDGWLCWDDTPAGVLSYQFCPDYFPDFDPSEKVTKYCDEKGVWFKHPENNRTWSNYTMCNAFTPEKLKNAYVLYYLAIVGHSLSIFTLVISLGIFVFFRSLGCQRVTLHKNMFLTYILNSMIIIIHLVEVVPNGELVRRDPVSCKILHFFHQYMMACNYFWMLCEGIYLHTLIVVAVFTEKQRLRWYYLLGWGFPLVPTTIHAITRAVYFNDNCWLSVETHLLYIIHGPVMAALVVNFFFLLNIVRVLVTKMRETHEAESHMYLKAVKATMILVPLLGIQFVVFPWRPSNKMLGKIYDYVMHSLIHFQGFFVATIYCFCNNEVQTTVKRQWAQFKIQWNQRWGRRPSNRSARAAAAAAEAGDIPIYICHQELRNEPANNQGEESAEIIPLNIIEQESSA
Method in brief: (§1)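 Thawed cells in HBSS/0.1% BSA/25 mM HEPES pH 7.4 with 0.5 mM IBMX were incubated with peptides 30 min at room temperature; cAMP read by HTRF. EC50 from 4-parameter fit of % activation relative to maximal amylin or calcitonin effect.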

[2] = target: T2, human amylin receptor (calcitonin receptor co-expressed with receptor activity modifying protein, RAMP3) (hAMYR3) (Homo sapiens, UniProt O60896+P30988); test: cAMP production in 1321N1 cells with stable recombinant expression of human amylin receptor (hAMYR3); type: cell-based; conditions: for Ratio (selectivity hAMYR vs hCTR, ratio of EC50 values at the two receptors): EC50 hCTR / EC50 hAMYR3
T2 construct: expressed in transfected cells
T2 sequence (P30988 25-474): T1 sequence (P30988 25-474)
T2 sequence (O60896 24-148 partner): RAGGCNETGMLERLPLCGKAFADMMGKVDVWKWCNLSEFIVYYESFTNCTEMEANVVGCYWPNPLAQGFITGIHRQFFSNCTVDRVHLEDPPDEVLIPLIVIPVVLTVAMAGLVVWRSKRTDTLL
Method in brief: as §1

[3] = cAMP, 1321N1 cells, assay buffer with 0.1% BSA, read-out: EC50 (pM) hCTR
[4] = cAMP, 1321N1 cells, assay buffer with 0.1% BSA, read-out: EC50 (pM) hAMYR3

EC50 [1, 3] [pM] | Ratio (selectivity hAMYR vs hCTR, ratio of EC50 values at the two receptors) [2] | EC50 [2, 4] [pM] | SMILES | EC50 [1] [pM] | EC50 [2] [pM]
 |  |  | CC[C@H](C)[C@H](NC(=O)[C@@H]1CCCN1C(=O)CNC(=O)[C@H](Cc1ccccc1)NC(=O)[C@H](CC(N)=O)NC(=O)C(C)(C)NC(=O)[C@H](CO)NC(=O)[C@H](CO)NC(=O)[C@H](Cc1c[nH]cn1)NC(=O)[C@@H](NC(=O)[C@H](CC(C)C)NC(=O)[C@H](Cc1ccccc1)NC(=O)[C@H](CC(N)=O)NC(=O)[C@H](C)NC(=O)[C@H](CC(C)C)NC(=O)[C@H](CCCNC(=N)N)NC(=O)[C@H](CCC(N)=O)NC(=O)[C@@H](NC(=O)[C@H](C)NC(=O)[C@@H]1CSSC[C@H](NC(=O)[C@@H](N)CCCCNC(=O)CC[C@H](NC(=O)CC[C@H](NC(=O)CCCCCCCCCCCCCCCCC(=O)O)C(=O)O)C(=O)O)C(=O)N[C@@H](CC(N)=O)C(=O)N[C@@H]([C@@H](C)O)C(=O)N[C@@H](C)C(=O)N[C@@H]([C@@H](C)O)C(=O)N1)[C@@H](C)O)C(C)C)C(=O)N[C@@H](CC(C)C)C(=O)N1CCC[C@H]1C(=O)N1CCC[C@H]1C(=O)N[C@H](C(=O)NC(C)(C)C(=O)N[C@H](C(=O)NCC(=O)N[C@@H](CO)C(=O)N[C@@H](CC(N)=O)C(=O)N[C@H](C(=O)N[C@@H](Cc1ccc(O)cc1)C(N)=O)[C@@H](C)O)C(C)C)[C@@H](C)O [Peptide 89, K(γE-γE-C18diacid)[CNTATCJATQRLANFLVHSS(Aib)NFGPILPPT(Aib)VGSNTY-amide] (H-K([γGlu-γGlu-C18 diacid])CNTATCATQRLANFLVHSS[Aib]NFGPILPPT[Aib]VGSNTY-NH2; disulfide 2-7; N-terminus assumed) | 8240 | 447
2270 | 3.1 | 730 | CC[C@H](C)[C@H](NC(=O)[C@@H]1CCCN1C(=O)CNC(=O)[C@H](Cc1ccccc1)NC(=O)[C@H](CC(N)=O)NC(=O)[C@H](CC(N)=O)NC(=O)[C@H](CO)NC(=O)[C@H](CO)NC(=O)[C@H](Cc1c[nH]cn1)NC(=O)C(C)(C)NC(=O)[C@H](CC(C)C)NC(=O)[C@H](Cc1ccccc1)NC(=O)[C@H](CC(N)=O)NC(=O)[C@H](C)NC(=O)[C@H](CC(C)C)NC(=O)[C@H](CCCNC(=N)N)NC(=O)[C@H](CCC(N)=O)NC(=O)[C@@H](NC(=O)[C@H](C)NC(=O)[C@@H]1CSSC[C@H](NC(=O)[C@H](CCCCN)NC(=O)[C@@H](N)CCCCNC(=O)CC[C@H](NC(=O)CCCCCCCCCCCCCCCCC(=O)O)C(=O)O)C(=O)N[C@@H](CC(N)=O)C(=O)N[C@@H]([C@@H](C)O)C(=O)N[C@@H](C)C(=O)N[C@@H]([C@@H](C)O)C(=O)N1)[C@@H](C)O)C(=O)N[C@@H](CC(C)C)C(=O)N1CCC[C@H]1C(=O)N1CCC[C@H]1C(=O)N[C@H](C(=O)N[C@@H](CC(N)=O)C(=O)N[C@H](C(=O)NCC(=O)N[C@@H](CO)C(=O)N[C@@H](CCC(=O)O)C(=O)N[C@H](C(=O)N[C@@H](Cc1ccc(O)cc1)C(N)=O)[C@@H](C)O)C(C)C)[C@@H](C)O [Peptide 142] (H-K([γGlu-C18 diacid])KCNTATCATQRLANFL[Aib]HSSNNFGPILPPTNVGSETY-NH2; disulfide 3-8; N-terminus assumed) |  | 
65 | 1 | 71 | CC[C@H](C)[C@H](NC(=O)[C@@H]1CCCN1C(=O)CNC(=O)[C@H](Cc1ccccc1)NC(=O)[C@H](CC(N)=O)NC(=O)C(C)(C)NC(=O)[C@H](CO)NC(=O)[C@H](CO)NC(=O)[C@H](Cc1c[nH]cn1)NC(=O)[C@@H](NC(=O)[C@H](CC(C)C)NC(=O)[C@H](Cc1ccccc1)NC(=O)[C@H](CC(N)=O)NC(=O)[C@H](C)NC(=O)[C@H](CC(C)C)NC(=O)[C@H](CCCNC(=N)N)NC(=O)[C@H](CCC(N)=O)NC(=O)[C@@H](NC(=O)[C@H](C)NC(=O)[C@@H]1CSSC[C@H](NC(=O)[C@H](CCCCN)NC(=O)[C@@H](N)CCCCNC(=O)CC[C@H](NC(=O)CCCCCCCCCCCCCCCCC(=O)O)C(=O)O)C(=O)N[C@@H](CC(N)=O)C(=O)N[C@@H]([C@@H](C)O)C(=O)N[C@@H](C)C(=O)N[C@@H]([C@@H](C)O)C(=O)N1)[C@@H](C)O)C(C)C)C(=O)N[C@@H](CC(C)C)C(=O)N1CCC[C@H]1C(=O)N1CCC[C@H]1C(=O)N[C@H](C(=O)N[C@@H](CC(N)=O)C(=O)N[C@H](C(=O)NCC(=O)N[C@@H](CO)C(=O)N[C@@H](CC(N)=O)C(=O)N[C@H](C(=O)N1CCC[C@H]1C(N)=O)[C@@H](C)O)C(C)C)[C@@H](C)O [Peptide 58, K(γE-C18diacid)K[CNTATC]ATQRLANFLVHSS(Aib)NFGPILPPTNVGSNTP-amide] (H-K([γGlu-C18 diacid])KCNTATCATQRLANFLVHSS[Aib]NFGPILPPTNVGSNTP-NH2; disulfide 3-8) |  | 
44400 | 130 | 341 | CC[C@H](C)[C@H](NC(=O)[C@@H]1CCCN1C(=O)CNC(=O)[C@H](Cc1ccccc1)NC(=O)[C@H](CC(N)=O)NC(=O)C(C)(C)NC(=O)[C@H](CO)NC(=O)[C@H](CO)NC(=O)[C@H](Cc1c[nH]cn1)NC(=O)[C@H](CCCNC(=N)N)NC(=O)[C@H](CC(C)C)NC(=O)[C@H](Cc1ccccc1)NC(=O)[C@H](CC(N)=O)NC(=O)[C@H](C)NC(=O)[C@H](CC(C)C)NC(=O)[C@H](CCCNC(=N)N)NC(=O)[C@H](CCC(N)=O)NC(=O)[C@@H](NC(=O)[C@H](C)NC(=O)[C@@H]1CSSC[C@H](NC(=O)[C@@H](N)CCCCNC(=O)CC[C@H](NC(=O)CC[C@H](NC(=O)CCCCCCCCCCCCCCCCC(=O)O)C(=O)O)C(=O)O)C(=O)N[C@@H](CC(N)=O)C(=O)N[C@@H]([C@@H](C)O)C(=O)N[C@@H](C)C(=O)N[C@@H]([C@@H](C)O)C(=O)N1)[C@@H](C)O)C(=O)N[C@@H](CC(C)C)C(=O)N1CCC[C@H]1C(=O)N1CCC[C@H]1C(=O)N[C@H](C(=O)N[C@@H](CC(N)=O)C(=O)N[C@H](C(=O)NCC(=O)N[C@@H](CO)C(=O)NC(C)(C)C(=O)N[C@H](C(=O)N[C@@H](Cc1ccc(O)cc1)C(N)=O)[C@@H](C)O)C(C)C)[C@@H](C)O [Peptide 92, K(γE-γE-C18diacid)[CNTATC]ATQRLANFLRHSS(Aib)NFGPILPPTNVGS(Aib)TY-amide] (H-K([γGlu-γGlu-C18 diacid])CNTATCATQRLANFLRHSS[Aib]NFGPILPPTNVGS[Aib]TY-NH2; disulfide 2-7; N-terminus assumed) |  | 
235 | 2 | 98 | CC[C@H](C)[C@H](NC(=O)[C@@H]1CCCN1C(=O)CNC(=O)[C@H](Cc1ccccc1)NC(=O)[C@H](CC(N)=O)NC(=O)C(C)(C)NC(=O)[C@H](CO)NC(=O)[C@H](CO)NC(=O)[C@H](Cc1c[nH]cn1)NC(=O)[C@H](CO)NC(=O)[C@H](CC(C)C)NC(=O)[C@H](Cc1ccccc1)NC(=O)[C@H](CC(N)=O)NC(=O)[C@H](C)NC(=O)[C@H](CC(C)C)NC(=O)[C@H](CCCNC(=N)N)NC(=O)[C@H](CCC(N)=O)NC(=O)[C@@H](NC(=O)[C@H](C)NC(=O)[C@@H]1CSSC[C@H](NC(=O)[C@H](CCCCN)NC(=O)[C@@H](N)CCCCNC(=O)CC[C@H](NC(=O)CCCCCCCCCCCCCCCCC(=O)O)C(=O)O)C(=O)N[C@@H](CC(N)=O)C(=O)N[C@@H]([C@@H](C)O)C(=O)N[C@@H](C)C(=O)N[C@@H]([C@@H](C)O)C(=O)N1)[C@@H](C)O)C(=O)N[C@@H](CC(C)C)C(=O)N1CCC[C@H]1C(=O)N1CCC[C@H]1C(=O)N[C@H](C(=O)N1CCC[C@H]1C(=O)N[C@H](C(=O)NCC(=O)N[C@@H](CO)C(=O)N[C@@H](CC(N)=O)C(=O)N[C@H](C(=O)N[C@@H](Cc1ccc(O)cc1)C(N)=O)[C@@H](C)O)C(C)C)[C@@H](C)O [Peptide 53, K(γE-C18diacid)K[CNTATC]ATQRLANFLSHSS(Aib)NFGPILPPTPVGSNTY-amide] (H-K([γGlu-C18 diacid])KCNTATCATQRLANFLSHSS[Aib]NFGPILPPTPVGSNTY-NH2; disulfide 3-8; N-terminus assumed) |  | 
